Values joined by “and” are separate entries in the source; they are usually repeats but may differ in a detail not shown here. Identical values can stand only once. Like-named read-outs stand apart in the source and are kept apart here. Marks after values point to notes of the source that are not given here.
How the values were obtained:
[1] = system: Human Breast Adenocarcinoma Cell Line MDA-MB-231; assay: Drug cytotoxicity testing (viable cell count, trypan blue exclusion, cell growth inhibition); assay type: cell-based
Outline: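 A549 cells (10 × 10^3/well) and MDA-MB-231 cells (12 × 10^3/well) were left to adhere for 24 h, then exposed to drugs in medium with 5% FBS for 2 days. Viable cells were counted by trypan blue exclusion after trypsinization. Growth inhibition (%) = (control − test)/control × 100, from three determinations in six replicates each.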

[2] = system: Human Ovary Adenocarcinoma Cell Line SKOV-3; assay: as above; assay type: cell-based; conditions: alone or in formulation at molar ratio 1:6
Procedure: MDA-MB-231 cells were propagated in MEM culture medium with 2 mM L-glutamine, 10% heat-inactivated fetal bovine serum (FBS) and antibiotics. DU 145 cells were cultured in MEM culture medium containing 2 mM L-glutamine, 1 mM sodium pyruvate, 10% FBS and antibiotics. SKOV-3 cells were cultured in McCoy's 5A culture medium, supplemented with 1,5 mM L-glutamine, 10% FBS and antibiotics. A549 cells were cultured in Ham's F-12 culture medium with 1 mM L-glutamine, 10% FBS and antibiotics. All media and supplements were purchased from Sigma-Aldrich (St.Louis, MO, USA). Cell propagation of all lines was carried out in Falcon™ 25 cm^2 cultivation flasks (Becton Dickinson Labware).
Drug cytotoxicity testing was carried out with using Falcon™ 96-well cultivation plates for adherent cells (Becton Dickinson Labware). These plates were seeded by cells either at 12 × 10^3 MDA-MB-231 cells/well, or at 12 × 10^3 DU 145 cells/well, or at 14 × 10^3 SKOV-3 cells/well, or at 10 × 10^3 A549 cells/well in a volume of 200 µL/well.
The cell cultures in cultivation plates were allowed to adhere for 24 hour of incubation. On day 1 after cell seeding, 2 µL solutions of the drugs to be tested in medium with 5% FBS was added to the cultures. In the control cultures, 2 µL of medium with 5% FBS was added as solvent control. The cells were incubated for 2 consecutive days. At the end of the incubation period adherent cells were detached by trypsinization and the number of viable cells was counted using trypan blue exclusion test and a hemocytometer. All data were derived from an average of three determinations each in six replicates. The results were expressed as mean cell number ± SE and the differences between control and test series evaluated by means of Student's t-test. The drug cytotoxicity was evaluated based on the extent of cell growth inhibition. The cell growth inhibition of the tested drugs was calculated as follows: Cell growth inhibition,% = (Control-TestSeries)/(Control) × 100 [formula]

[3] = system: Human Lung Carcinoma Cell Line A549; assay: as above; assay type: cell-based
[4] = rat, in vivo, ip; for mortality: 100 mg/kg
Procedure: A single dose i.p. toxicity study in rats was carried out. […] The minimal lethal dose is thus above 100 mg/kg body weight for these compounds.

[5] = cytotoxic drug alone 10^-8 mol/L, average of positive controls in medium with 5% FBS, normal saline and saline with 2,3 mM CaCl2
[6] = cytotoxic drug alone 10^-9 mol/L, average of positive controls in medium with 5% FBS, normal saline and saline with 2,3 mM CaCl2
[7] = Homo sapiens, MDA-MB-231, 48 h, compound alone, final concentration 10^-7 mol/L, working solutions in MEM with 5% FBS, two days, read-out: cell growth inhibition
[8] = Homo sapiens, MDA-MB-231, 48 h, compound alone, final concentration 10^-8 mol/L, working solutions in MEM with 5% FBS, two days, read-out: cell growth inhibition
[9] = Homo sapiens, MDA-MB-231, 48 h, compound alone, final concentration 10^-9 mol/L, working solutions in MEM with 5% FBS, two days, read-out: cell growth inhibition
[10] = Homo sapiens, MDA-MB-231, compound alone 10^-7 mol/L, in A (saline with […] CaCl2), read-out: cell growth inhibition
[11] = Homo sapiens, MDA-MB-231, compound alone 10^-7 mol/L, in B (normal saline), read-out: cell growth inhibition
[12] = Homo sapiens, MDA-MB-231, compound alone 10^-7 mol/L, read-out: Cell growth inhibition in A compared to that in B was increased by
[13] = Homo sapiens, MDA-MB-231, compound alone 10^-8 mol/L, in A (saline with […] CaCl2), read-out: cell growth inhibition
[14] = Homo sapiens, MDA-MB-231, compound alone 10^-8 mol/L, in B (normal saline), read-out: cell growth inhibition
[15] = Homo sapiens, MDA-MB-231, compound alone 10^-8 mol/L, read-out: Cell growth inhibition in A compared to that in B was increased by
[16] = Homo sapiens, MDA-MB-231, compound alone 10^-9 mol/L, in A (saline with […] CaCl2), read-out: cell growth inhibition
[17] = Homo sapiens, MDA-MB-231, compound alone 10^-9 mol/L, in B (normal saline), read-out: cell growth inhibition
[18] = Homo sapiens, MDA-MB-231, compound alone 10^-9 mol/L, read-out: Cell growth inhibition in A compared to that in B was increased by
[19] = compound alone 10^-7 mol/L, in B (normal saline)
[20] = compound alone 10^-8 mol/L, in B (normal saline)
[21] = compound alone 10^-9 mol/L, in B (normal saline)
[22] = compound alone, final concentration 10^-7 mol/L, working solutions in MEM with 5% FBS, two days
[23] = compound alone, final concentration 10^-8 mol/L, working solutions in MEM with 5% FBS, two days
[24] = compound alone, final concentration 10^-9 mol/L, working solutions in MEM with 5% FBS, two days
[25] = sodium salt, range 10^-9 to 10^-7 M
[26] = sodium salt, range 10^-9 to 10^-7 M, dilution in normal saline (B)

Row | SMILES | inhibition at 0.1 µM [1, 7] | inhibition at 0.01 µM [1, 8] | inhibition at 0.001 µM [1, 9] | inhibition at 0.1 µM [1, 10] | inhibition at 0.1 µM [1, 11] | inhibition at 0.1 µM [1, 12] | inhibition at 0.01 µM [1, 13] | inhibition at 0.01 µM [1, 14] | inhibition at 0.01 µM [1, 15] | inhibition at 0.001 µM [1, 16] | inhibition at 0.001 µM [1, 17] | inhibition at 0.001 µM [1, 18] | number of viable cells [1, 19] | number of viable cells [1, 20] | number of viable cells [1, 21] | number of viable cells [1, 22] | number of viable cells [1, 23] | number of viable cells [1, 24] | cell growth inhibition in (A) compared to compound in B [1, 25] | minimal lethal dose [4] | also measured
1 | CC(=O)O[C@H]1C(=O)[C@@]2(C)[C@H]([C@H](OC(=O)c3ccccc3)[C@]3(O)C[C@H](OC(=O)[C@H](O)[C@@H](NC(=O)c4ccccc4)c4ccccc4)C(C)=C1C3(C)C)[C@]1(OC(C)=O)CO[C@@H]1C[C@@H]2O [Paclitaxel, paclitaxel, reference compound] |  |  |  |  |  |  |  |  |  |  |  |  |  |  |  |  |  |  |  |  | inhibition at 0.01 µM ([1]; Homo sapiens, MDA-MB-231, cytotoxic drug alone 10^-8 mol/L, average of positive controls in medium with 5% FBS, normal saline and saline with 2,3 mM CaCl2, read-out: Cell Growth Inhibition, %): 43.3%; inhibition at 0.001 µM ([1]; Homo sapiens, MDA-MB-231, cytotoxic drug alone 10^-9 mol/L, average of positive controls in medium with 5% FBS, normal saline and saline with 2,3 mM CaCl2, read-out: Cell Growth Inhibition, %): 27.3%; IC50 ([1]; Homo sapiens, MDA-MB-231, cytotoxic drug alone, average of positive controls, calculated from three concentrations, read-out: IC50 mol/L (a)): 17 nM; Tumor Cell Number, × 10^3 ([1]; cytotoxic drug alone 10^-7 mol/L, average of positive controls in medium with 5% FBS, normal saline and saline with 2,3 mM CaCl2): 16.0±0.72 × 10^3 and 16.6±0.86 × 10^3; Cell Growth Inhibition, % [1, 5]: 43.9* %; Tumor Cell Number, × 10^3 [1, 5]: 32.2±1.60 × 10^3 and 32.8±1.07 × 10^3; Cell Growth Inhibition, % [1, 6]: 27.7* %; Tumor Cell Number, × 10^3 [1, 6]: 41.3±1.93 × 10^3 and 42.3±1.55 × 10^3; inhibition at 0.1 µM ([2]; Homo sapiens, SK-OV-3, cytotoxic drug 10^-7 mol/L (100 nM), working solutions in medium with 5% FBS): 71.1%; inhibition at 0.01 µM ([2]; Homo sapiens, SK-OV-3, cytotoxic drug 10^-8 mol/L, working solutions in medium with 5% FBS): 59.9%; inhibition at 0.001 µM ([2]; Homo sapiens, SK-OV-3, cytotoxic drug 10^-9 mol/L, working solutions in medium with 5% FBS): 24.8%; IC50 ([2]; Homo sapiens, SK-OV-3, as concentration of cytotoxic drug, medium with 5% FBS, calculated from three concentrations, read-out: IC50 mol/L (a)): 4.5 nM; Tumor Cell Number, × 10^3 ([2]; cytotoxic drug 10^-7 mol/L (100 nM), working solutions in medium with 5% FBS): 14.1 ± 0.98 × 10^3; Tumor Cell Number, × 10^3 ([2]; cytotoxic drug 10^-7 mol/L (100 nM), working solutions in medium with 5% FBS, listed as paclitaxel): 14.6 ± 0.82 × 10^3; Tumor Cell Number, × 10^3 ([2]; cytotoxic drug 10^-8 mol/L, working solutions in medium with 5% FBS): 19.9 ± 1.45 × 10^3; Tumor Cell Number, × 10^3 ([2]; cytotoxic drug 10^-9 mol/L, working solutions in medium with 5% FBS): 37.3 ± 1.80 × 10^3
2 | COC(=O)[C@H](CS(=O)(=O)O)NC(=O)\C=C(C)/C=C/C=C(C)/C=C/C1=C(C)CCCC1(C)C [compound II-1a, N-(13-cis-retinoyl)-L-cysteic acid methyl ester] | 46.5% | 44.1% | 38.8% | 48.9% | 40.5% | 14.1% | 41.7% | 31.2% | 15.2% | 35.8% | 23% | 16.6% | 34.1 ± 1.97 × 10^3 | 39.4 ± 2.28 × 10^3 | 44.1 ± 2.24 × 10^3 | 31.3 ± 2.15 × 10^3 | 32.7 ± 2.06 × 10^3 | 35.8 ± 2.50 × 10^3 | ~14% | above 100 mg/kg body weight | inhibition at 0.1 µM ([3]; Homo sapiens, A549, compound alone 10^-7 mol/L, in A (saline with […] CaCl2)): 34.4%; inhibition at 0.1 µM ([3]; Homo sapiens, A549, compound alone 10^-7 mol/L, in B (normal saline)): 25.6%; increase in cell growth inhibition in A over B at 0.1 µM ([3]; Homo sapiens, A549, compound alone 10^-7 mol/L, read-out: Cell growth inhibition in A compared to that in B was increased by): 11.8%; inhibition at 0.01 µM ([3]; Homo sapiens, A549, compound alone 10^-8 mol/L, in A (saline with […] CaCl2)): 26.9%; inhibition at 0.01 µM ([3]; Homo sapiens, A549, compound alone 10^-8 mol/L, in B (normal saline)): 15.6%; increase in cell growth inhibition in A over B at 0.01 µM ([3]; Homo sapiens, A549, compound alone 10^-8 mol/L, read-out: Cell growth inhibition in A compared to that in B was increased by): 13.4%; inhibition at 0.001 µM ([3]; Homo sapiens, A549, compound alone 10^-9 mol/L, in A (saline with […] CaCl2)): 20.4%; inhibition at 0.001 µM ([3]; Homo sapiens, A549, compound alone 10^-9 mol/L, in B (normal saline)): 7.2%; increase in cell growth inhibition in A over B at 0.001 µM ([3]; Homo sapiens, A549, compound alone 10^-9 mol/L, read-out: Cell growth inhibition in A compared to that in B was increased by): 14.3%; number of viable cells [3, 19]: 41.5 ± 1.80 × 10^3; number of viable cells [3, 20]: 47.1 ± 1.43 × 10^3; number of viable cells [3, 21]: 51.8 ± 2.48 × 10^3; cell growth inhibition in (A) compared to compound in B [3, 25]: ~12%; cell growth inhibition reached on increase of the concentration, in (B) [3, 26]: ~26%; mortality [4]: did not produce mortality
3 | CCOC(=O)[C@H](CCS(=O)(=O)O)NC(=O)\C=C(C)/C=C/C=C(C)/C=C/C1=C(C)CCCC1(C)C [compound II-3b, N-(13-cis-retinoyl)-L-homocysteic acid ethyl ester] | 62.1% | 55.4% | 47.8% | 60.5% | 44.4% | 28.9% | 53.6% | 35.7% | 27.8% | 46% | 25.3% | 27.8% | 30.8 ± 1.60 × 10^3 | 35.6 ± 1.97 × 10^3 | 41.4 ± 2.15 × 10^3 | 21.4 ± 0.88 × 10^3 | 25.2 ± 1.27 × 10^3 | 29.5 ± 1.21 × 10^3 | ~29% | above 100 mg/kg body weight | cell growth inhibition reached on increase of the concentration, in (B) [1, 26]: ~44%; mortality [4]: did not produce mortality

— EP1534672B1, “RETINOL DERIVATIVES, THEIR USE IN THE TREATMENT OF CANCER AND FOR POTENTIATING THE EFFICACY OF OTHER CYTOTOXIC AGENTS” (priority 2002, dated 2004)
